In test [1] the test system is lambsquarters. The test can be described thus: Test Example 5: herbicidal effect by foliage application, plastic box (Table 20, symbol O). It is filed as in vivo, lambsquarters (Chenopodium album). The note with it: foliage application, 320 g/ha, three weeks after application. The procedure, abridged: (§1)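 Foliar spray test: emulsion formulation diluted in water to a set application rate, sprayed onto 14-day-old plants raised in diluvial soil at 25° C to 30° C under glass. Both herbicidal effect and crop effect rated visually three weeks later.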

Test [2] concerns windgrass. Description: Test Example 5: herbicidal effect by foliage application, plastic box (Table 20, symbol L). In kind it is in vivo, windgrass (Apera spica-venti). The note with it: foliage application, 320 g/ha, three weeks after application. The procedure, abridged: as §1
In test [3] the test system is lambsquarters. The test can be described thus: Test Example 4: herbicidal effect by soil treatment (Table 19, symbol O). It is filed as in vivo, lambsquarters (Chenopodium album). The note with it: amount of applied herbicide 320 g/ha. The procedure, abridged: (§2)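 Step 1: sow seeds in sterilized diluvial soil, cover ~1.5 cm. Step 2: spray diluted emulsion onto soil surface at predetermined rate. Step 3: greenhouse, 25–30° C, three weeks. Step 4: grade effect on each plant by earlier criteria.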

The next test deals with rice flat sedge. Description: Test Example 3: herbicidal effect by foliage application, Wagner pot (Table 18, symbol E). In kind it is in vivo, rice flat sedge (Cyperus iria). The note with it: 320 g/ha. The procedure, abridged:
(§3)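 Plants were sown in alluvial soil held under 0.1–0.5 cm standing water and grown 14 days in a greenhouse at 25–30 °C. An emulsifiable formulation, water-diluted to the set dose, was then sprayed onto the foliage, and effects were scored three weeks later using previously defined criteria.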

Test [4] concerns windgrass. Description: Test Example 4: herbicidal effect by soil treatment (Table 19, symbol L). It is filed as in vivo, windgrass (Apera spica-venti). The note with it: amount of applied herbicide 320 g/ha. The procedure, abridged: as §2
For a further test, the system named is Chinese sprangletop. Description: Test Example 3: herbicidal effect by foliage application, Wagner pot (Table 18, symbol D). It is filed as in vivo, chinese sprangletop (Leptochloa chinensis). Conditions: 320 g/ha. The procedure, abridged: as §3
A further test deals with late watergrass. The test can be described thus: Test Example 2: herbicidal activity, application during weed generation under submerged conditions (Table 17, symbol A). In kind it is in vivo, late watergrass (Echinochloa oryzicola). Conditions: AAH 320 g/ha; application during weed generation, submerged conditions. The procedure, abridged:
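3-wk visual-criteria score after one water-surface dose. Emulsion formulation, water-diluted to set rate; applied at 1–2 leaf stage; alluvial soil, 4 cm standing water; seeds co-sown; greenhouse 25–30° C.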

Test [5] concerns persian speedwell. Description: Test Example 4: herbicidal effect by soil treatment (Table 19, symbol R). It is filed as in vivo, Persian speedwell (Veronica persica). Conditions: amount of applied herbicide 320 g/ha. The procedure, abridged:
as §2

The test system of test [6] is velvetleaf. The test can be described thus: Test Example 5: herbicidal effect by foliage application, plastic box (Table 20, symbol M). The note with it: foliage application, 320 g/ha, three weeks after application. In kind it is in vivo, velvetleaf (Abutilon theophrasti). The procedure, abridged: as §1
In the next test the test system is oval-leafed pondweed. Description: Test Example 1: herbicidal activity, application before weed generation under submerged conditions (Table 16, symbol C). In kind it is in vivo, oval-leafed pondweed (Monochoria vaginalis). Conditions: amount of applied herbicide 320 g/ha. The procedure, abridged: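 Submerged Wagner pots (alluvial soil, 4 cm water) sown with weed seeds and planted with 2.5-leaf rice seedlings; emulsifiable concentrate diluted in water applied to water surface on sowing day. Held in greenhouse at 25-30 °C; injury scored 0-5 by herbicidal rate after three weeks.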

A further test concerns southern crabgrass. Description: Test Example 5: herbicidal effect by foliage application, plastic box (Table 20, symbol F). In kind it is in vivo, southern crabgrass (Digitaria ciliaris). The note with it: foliage application, 320 g/ha, three weeks after application. The procedure, abridged: as §1
The subject of test [7] is velvetleaf. Description: Test Example 4: herbicidal effect by soil treatment (Table 19, symbol M). In kind it is in vivo, velvetleaf (Abutilon theophrasti). Conditions: amount of applied herbicide 320 g/ha. The procedure, abridged: as §2
The subject of a further test is Italian ryegrass. The test can be described thus: Test Example 5: herbicidal effect by foliage application, plastic box (Table 20, symbol K). In kind it is in vivo, Italian ryegrass (Lolium multiflorum). Conditions: foliage application, 320 g/ha, three weeks after application. The procedure, abridged: as §1
The subject of a further test is barnyard grass. The test can be described thus: Test Example 3: herbicidal effect by foliage application, Wagner pot (Table 18, symbol H). It is filed as in vivo, barnyard grass (Echinochloa crus-galli). The note with it: 320 g/ha. The procedure, abridged: as §3
The subject of test [8] is persian speedwell. Description: Test Example 5: herbicidal effect by foliage application, plastic box (Table 20, symbol R). In kind it is in vivo, Persian speedwell (Veronica persica). The note with it: foliage application, 320 g/ha, three weeks after application. The procedure, abridged:
as §1

Another test concerns green foxtail. Description: Test Example 4: herbicidal effect by soil treatment (Table 19, symbol G). It is filed as in vivo, green foxtail (Setaria viridis). Conditions: amount of applied herbicide 320 g/ha. The procedure, abridged: as §2
A further test relates to chickweed. The test can be described thus: Test Example 4: herbicidal effect by soil treatment (Table 19, symbol P). It is filed as in vivo, common chickweed (Stellaria media). The note with it: amount of applied herbicide 320 g/ha. The procedure, abridged: as §2

From patent US20230085307A1, “PYRIDAZINONE COMPOUND AND HERBICIDE” (NISSAN CHEMICAL CORPORATION, priority 2019, published 2023) come the findings set out here.

Consider `CCCC(=O)Oc1c(C)nn(C)c(=O)c1-c1c(-c2ccc(F)cc2OCC)sc2cc(Cl)ccc12` [3-046], for which the “O: lambsquarters, herbicidal effect grade” value (from here on “O: lambsquarters”) in the test with lambsquarters [1] is 3 (Herbicidal rate of 40% or more and less than 70%); in the test on lambsquarters [3] it was 3 (Herbicidal rate of 40% or more and less than 70%). The “L: windgrass, herbicidal effect grade” value is 4 (Herbicidal rate of 70% or more and less than 90%) in the test on windgrass [2]; 5 (Herbicidal rate of 90% or more (almost completely withered)) in the test on windgrass [4]. In the test with rice flat sedge, the “herbicidal effect on rice flat sedge (E)” value is reported as 5 (Herbicidal rate of 90% or more (almost completely withered)). In addition, the “herbicidal effect on Chinese sprangletop (D)” value (“herbicidal effect … (D)” for short) in the test on Chinese sprangletop was 2 (Herbicidal rate of 20% or more and less than 40%). The “herbicidal effect rating, A: late watergrass” value (“herbicidal effect rating” below) in the test with late watergrass is 0 (Herbicidal rate of 5% or less (almost no effect)). Besides, the “R: persian speedwell, herbicidal effect grade” value (shortened to “R: persian speedwell”) was 4 (Herbicidal rate of 70% or more and less than 90%) in the test with persian speedwell [5]; 3 (Herbicidal rate of 40% or more and less than 70%) with persian speedwell [8]. In addition, the “M: velvetleaf, herbicidal effect grade” value with velvetleaf [6] is 4 (Herbicidal rate of 70% or more and less than 90%); in the test with velvetleaf [7] it was 1 (Herbicidal rate of 5% or more and less than 20%). The “Herbicidal effect, C: oval-leafed pondweed” value (from here on “Herbicidal effect, C”) in the test with oval-leafed pondweed is given as 0 (Herbicidal rate of 5% or less (almost no effect)). In addition, the “F: southern crabgrass, herbicidal effect grade” value (from here on “F: southern crabgrass”) with southern crabgrass is on record as 5 (Herbicidal rate of 90% or more (almost completely withered)). Further, in the test with Italian ryegrass, the “K: Italian ryegrass, herbicidal effect grade” value (from here on “K: Italian ryegrass”) is 0 (Herbicidal rate of 5% or less (almost no effect)). Moreover, in the test with barnyard grass, the “herbicidal effect on barnyard grass (H)” value is on record as 5 (Herbicidal rate of 90% or more (almost completely withered)). Besides, in the test with green foxtail, the “G: green foxtail, herbicidal effect grade” value (“G: green foxtail” below) is 0 (Herbicidal rate of 5% or less (almost no effect)). Further, the “P: chickweed, herbicidal effect grade” value with chickweed was 4 (Herbicidal rate of 70% or more and less than 90%).
In the case of `CCOc1ccccc1-c1sc2cc(C)ccc2c1-c1c(O)c(C)nn(C)c1=O` [3-053], the “O: lambsquarters” value in the test on lambsquarters [1] was 5 (Herbicidal rate of 90% or more (almost completely withered)); in the test on lambsquarters [3], 4 (Herbicidal rate of 70% or more and less than 90%). Also, the “L: windgrass, herbicidal effect grade” value in the test on windgrass [2] and in the test on windgrass [4] was 5 (Herbicidal rate of 90% or more (almost completely withered)) each time. In the test on rice flat sedge, the “herbicidal effect on rice flat sedge (E)” value is on record as 5 (Herbicidal rate of 90% or more (almost completely withered)). In addition, the “herbicidal effect … (D)” value in the test with Chinese sprangletop is 4 (Herbicidal rate of 70% or more and less than 90%). Further, the “herbicidal effect rating” value with late watergrass is 3 (Herbicidal rate of 40% or more and less than 70%). The “R: persian speedwell” value with persian speedwell [5] and with persian speedwell [8] was 5 (Herbicidal rate of 90% or more (almost completely withered)) in each case. Further, the “M: velvetleaf, herbicidal effect grade” value in the test on velvetleaf [6] is on record as 5 (Herbicidal rate of 90% or more (almost completely withered)); with velvetleaf [7] it was 0 (Herbicidal rate of 5% or less (almost no effect)). Further, in the test with oval-leafed pondweed, the “Herbicidal effect, C” value is 4 (Herbicidal rate of 70% or more and less than 90%). In addition, the “F: southern crabgrass” value in the test with southern crabgrass was 5 (Herbicidal rate of 90% or more (almost completely withered)). Further, the “K: Italian ryegrass” value with Italian ryegrass is listed as 5 (Herbicidal rate of 90% or more (almost completely withered)). Besides, the “herbicidal effect on barnyard grass (H)” value in the test on barnyard grass is on record as 5 (Herbicidal rate of 90% or more (almost completely withered)). The “G: green foxtail” value in the test with green foxtail is given as 5 (Herbicidal rate of 90% or more (almost completely withered)). For the same compound, the “P: chickweed, herbicidal effect grade” value in the test on chickweed is 4 (Herbicidal rate of 70% or more and less than 90%).
On to `CCOc1cc(F)ccc1-c1sc2cc(C)ccc2c1-c1c(O)c(C)nn(C)c1=O` [3-057], for which the “O: lambsquarters” value in the test with lambsquarters [1] and with lambsquarters [3] was 5 (Herbicidal rate of 90% or more (almost completely withered)) each time. Besides, the “L: windgrass, herbicidal effect grade” value with windgrass [2] and with windgrass [4] was 5 (Herbicidal rate of 90% or more (almost completely withered)) each time. The “herbicidal effect on rice flat sedge (E)” value with rice flat sedge was 4 (Herbicidal rate of 70% or more and less than 90%). The “herbicidal effect … (D)” value in the test with Chinese sprangletop is 3 (Herbicidal rate of 40% or more and less than 70%). The “herbicidal effect rating” value in the test with late watergrass was 4 (Herbicidal rate of 70% or more and less than 90%). Besides, the “R: persian speedwell” value in the test with persian speedwell [5] and in the test on persian speedwell [8] was 5 (Herbicidal rate of 90% or more (almost completely withered)) throughout. Also, the “M: velvetleaf, herbicidal effect grade” value was 5 (Herbicidal rate of 90% or more (almost completely withered)) with velvetleaf [6]; 2 (Herbicidal rate of 20% or more and less than 40%) with velvetleaf [7]. Moreover, the “Herbicidal effect, C” value with oval-leafed pondweed is listed as 5 (Herbicidal rate of 90% or more (almost completely withered)). For the same compound, the “F: southern crabgrass” value with southern crabgrass is 5 (Herbicidal rate of 90% or more (almost completely withered)). The “K: Italian ryegrass” value in the test with Italian ryegrass is on record as 5 (Herbicidal rate of 90% or more (almost completely withered)). In the test with barnyard grass, the “herbicidal effect on barnyard grass (H)” value is listed as 5 (Herbicidal rate of 90% or more (almost completely withered)). Moreover, the “G: green foxtail” value in the test with green foxtail was 4 (Herbicidal rate of 70% or more and less than 90%). Also, the “P: chickweed, herbicidal effect grade” value with chickweed is 5 (Herbicidal rate of 90% or more (almost completely withered)).
`CCCC(=O)Oc1c(C)nn(C)c(=O)c1-c1c(-c2ccc(F)cc2OCC)sc2cc(C)ccc12` [3-058]: the “O: lambsquarters” value in the test on lambsquarters [1] and in the test on lambsquarters [3] was 5 (Herbicidal rate of 90% or more (almost completely withered)) in each case. Moreover, the “L: windgrass, herbicidal effect grade” value in the test with windgrass [2] and in the test on windgrass [4] was 5 (Herbicidal rate of 90% or more (almost completely withered)) throughout. Further, the “herbicidal effect on rice flat sedge (E)” value with rice flat sedge is on record as 5 (Herbicidal rate of 90% or more (almost completely withered)). The “herbicidal effect … (D)” value with Chinese sprangletop is 4 (Herbicidal rate of 70% or more and less than 90%). The “herbicidal effect rating” value with late watergrass is 4 (Herbicidal rate of 70% or more and less than 90%). Moreover, the “R: persian speedwell” value in the test on persian speedwell [5] is 4 (Herbicidal rate of 70% or more and less than 90%); with persian speedwell [8], 5 (Herbicidal rate of 90% or more (almost completely withered)). Besides, the “M: velvetleaf, herbicidal effect grade” value in the test with velvetleaf [6] and in the test on velvetleaf [7] was 5 (Herbicidal rate of 90% or more (almost completely withered)) throughout. Also, the “Herbicidal effect, C” value in the test with oval-leafed pondweed is 3 (Herbicidal rate of 40% or more and less than 70%). The “F: southern crabgrass” value in the test with southern crabgrass is on record as 5 (Herbicidal rate of 90% or more (almost completely withered)). Moreover, the “K: Italian ryegrass” value in the test with Italian ryegrass is reported as 5 (Herbicidal rate of 90% or more (almost completely withered)). Moreover, in the test with barnyard grass, the “herbicidal effect on barnyard grass (H)” value was 5 (Herbicidal rate of 90% or more (almost completely withered)). In addition, in the test with green foxtail, the “G: green foxtail” value was 2 (Herbicidal rate of 20% or more and less than 40%). For the same compound, in the test with chickweed, the “P: chickweed, herbicidal effect grade” value is 4 (Herbicidal rate of 70% or more and less than 90%).
